Where two headings read alike, the source gives them in different places.
How the values were obtained:
[1] = target: T1, P. falciparum ENR (PfENR), enoyl-acyl carrier protein reductase (Plasmodium falciparum, UniProt Q9BH77); assay: biochemical; assay type: binding
T1 construct: gene FabI
T1 sequence (Q9BH77 22-432): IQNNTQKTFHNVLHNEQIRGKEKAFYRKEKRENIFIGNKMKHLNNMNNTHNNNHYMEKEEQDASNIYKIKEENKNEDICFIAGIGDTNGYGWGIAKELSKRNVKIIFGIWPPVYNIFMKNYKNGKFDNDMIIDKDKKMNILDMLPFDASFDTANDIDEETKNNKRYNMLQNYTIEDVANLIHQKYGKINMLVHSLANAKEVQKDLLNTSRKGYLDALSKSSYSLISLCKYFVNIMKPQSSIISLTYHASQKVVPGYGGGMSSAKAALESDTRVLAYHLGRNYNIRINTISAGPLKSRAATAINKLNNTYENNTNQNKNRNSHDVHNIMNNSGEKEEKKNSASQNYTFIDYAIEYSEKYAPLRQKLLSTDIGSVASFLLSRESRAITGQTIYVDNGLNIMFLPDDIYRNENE

[2] = target: T1, P. falciparum ENR (PfENR), enoyl-acyl carrier protein reductase; assay: biochemical; assay type: binding; remark: listed apart in the source
[3] = substrate: C/C=C/C(=O)SCCNC(=O)CCNC(=O)[C@H](O)C(C)(C)COP(=O)(O)OP(=O)(O)OC[C@H]1O[C@@H](n2cnc3c(N)ncnc32)[C@H](O)[C@@H]1OP(=O)(O)O; assay: steady-state initial velocity kinetics (KM) with purified enzyme; no fluorescence change with free enzyme; assay type: biochemical, Plasmodium falciparum; details: NADH proposed to bind to a modified form of the enzyme (F) after NAD+ release

Q: CCCC(=O)SCCNC(=O)CCNC(=O)[C@H](O)C(C)(C)COP(=O)(O)OP(=O)(O)OC[C@H]1O[C@@H](n2cnc3c(N)ncnc32)[C@H](O)[C@@H]1OP(=O)(O)O [butyryl-CoA] was tested. Which Kd [1] did it give?
A: 1150 µM

Q: For NC(=O)C1=CN([C@@H]2O[C@H](COP(=O)(O)OP(=O)(O)OC[C@H]3O[C@@H](n4cnc5c(N)ncnc54)[C@H](O)[C@@H]3O)[C@@H](O)[C@H]2O)C=CC1 [NADH], which Kd [2] is on record?
A: 398 µM

B1: P. falciparum ENR (PfENR), enoyl-acyl carrier protein reductase (Plasmodium falciparum) (protein)
chain: IQNNTQKTFHNVLHNEQIRGKEKAFYRKEKRENIFIGNKMKHLNNMNNTHNNNHYMEKEEQDASNIYKIKEENKNEDICFIAGIGDTNGYGWGIAKELSKRNVKIIFGIWPPVYNIFMKNYKNGKFDNDMIIDKDKKMNILDMLPFDASFDTANDIDEETKNNKRYNMLQNYTIEDVANLIHQKYGKINMLVHSLANAKEVQKDLLNTSRKGYLDALSKSSYSLISLCKYFVNIMKPQSSIISLTYHASQKVVPGYGGGMSSAKAALESDTRVLAYHLGRNYNIRINTISAGPLKSRAATAINKLNNTYENNTNQNKNRNSHDVHNIMNNSGEKEEKKNSASQNYTFIDYAIEYSEKYAPLRQKLLSTDIGSVASFLLSRESRAITGQTIYVDNGLNIMFLPDDIYRNENE
Q: Which Km [3] does the source give for B1 here?
A: 63 µM

Source: article PMC3092583, “Enzyme Mechanism and Slow-Onset Inhibition of Plasmodium falciparum Enoyl-Acyl Carrier Protein Reductase by an Inorganic Complex” (2011)
